Pest or weed control data for nine molecules are collected here from patent US20110086759A1, “CHEMICAL COMPOUNDS” (SYNGENTA CROP PROTECTION, INC., priority 2007, published 2011).

Common to all, as to format: in vivo
The subject of assay [1] is Alopecurus myosuroides (ALOMY). The assay is described as follows: Pre-emergence biological efficacy, glasshouse pot test. Conditions: 312 h, pre-emergence, 1,000 g/ha, evaluated after 13 days (100=total damage; 0=no damage), read-out: Percentage damage ALOMY. In short, it runs like this: (§1)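 One day after sowing in standard soil, pots were sprayed with compound in acetone/water (50:50) with 0.5% Tween 20, at 1000 or 250 g/ha. Plants grew at 24/16° C day/night, 14 h light, 65% humidity. Damage was scored after 13 days (0 = none, 100 = total).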

Assay [2] relates to Amaranthus retoflexus (AMARE). The description is as above. Conditions: Amaranthus retroflexus, 312 h; pre-emergence, 1,000 g/ha, evaluated after 13 days (100=total damage; 0=no damage); read-out: Percentage damage AMARE. In short, it runs like this: as §1
In assay [3] the test system is Echinochloa crus-galli (ECHCG). The assay is described as above. The conditions noted are these: 312 h, pre-emergence, 1,000 g/ha, evaluated after 13 days (100=total damage; 0=no damage), read-out: Percentage damage ECHCG. In short, it runs like this:
as §1

The test system of assay [4] is Ipomea hederaceae (IPOHE). Described as above. Conditions: Ipomoea hederacea, 312 h; pre-emergence, 1,000 g/ha, evaluated after 13 days (100=total damage; 0=no damage); read-out: Percentage damage IPOHE. In short, it runs like this:
as §1

The subject of assay [5] is Setaria faberi (SETFA). The assay is described as above. Conditions: 312 h, pre-emergence, 1,000 g/ha, evaluated after 13 days (100=total damage; 0=no damage), read-out: Percentage damage SETFA. The essentials: as §1
The subject of assay [6] is Solanum nigrum (SOLNI). The description is as above. The conditions noted are these: 312 h, pre-emergence, 1,000 g/ha, evaluated after 13 days (100=total damage; 0=no damage), read-out: Percentage damage SOLNI. The essentials:
as §1

Assay [7] has as its system Alopecurus myosuroides (ALOMY). The assay is described as follows: Post-emergence biological efficacy, glasshouse pot test. The conditions noted are these: 312 h, post-emergence, 1,000 g/ha, evaluated after 13 days (100=total damage; 0=no damage), read-out: Percentage damage caused to weed species, ALOMY. In short, it runs like this:
(§2)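 Pot-grown weeds were sprayed 8 days after sowing with test compound in acetone/water (50:50) with 0.5% Tween 20 at 1000 or 250 g/ha. Glasshouse at 24/16° C day/night, 14 h light, 65% humidity. Damage scored 0-100 (100 = total damage) after 13 days.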

Assay [8] has as its system Amaranthus retoflexus (AMARE). The assay is described as above. The conditions noted are these: Amaranthus retroflexus, 312 h; post-emergence, 1,000 g/ha, evaluated after 13 days (100=total damage; 0=no damage); read-out: Percentage damage caused to weed species, AMARE. The essentials: as §2
Assay [9] deals with Echinochloa crus-galli (ECHCG). The description is as above. Conditions: 312 h, post-emergence, 1,000 g/ha, evaluated after 13 days (100=total damage; 0=no damage), read-out: Percentage damage caused to weed species, ECHCG. The essentials: as §2
For assay [10], the system named is Ipomea hederaceae (IPOHE). The description is as above. The conditions noted are these: Ipomoea hederacea, 312 h; post-emergence, 1,000 g/ha, evaluated after 13 days (100=total damage; 0=no damage); read-out: Percentage damage caused to weed species, IPOHE. In short, it runs like this:
as §2

Assay [11] relates to Setaria faberi (SETFA). The assay is described as above. The conditions noted are these: 312 h, post-emergence, 1,000 g/ha, evaluated after 13 days (100=total damage; 0=no damage), read-out: Percentage damage caused to weed species, SETFA. The essentials: as §2
The subject of assay [12] is Solanum nigrum (SOLNI). Described as above. Conditions: 312 h, post-emergence, 1,000 g/ha, evaluated after 13 days (100=total damage; 0=no damage), read-out: Percentage damage caused to weed species, SOLNI. The essentials: as §2

Structures are written as SMILES.

Regarding `COC(=O)c1nc(C2CC2)nc(NCc2ccc(Cl)c(OC)c2)c1Cl` [Compound 4-116, 5-Chloro-4-(4-chloro-3-methoxy-phenylmethyl-amino)-2-cyclopropyl-6-methoxycarbonyl-pyrimidine], the pest or weed control at 1000 g/ha was determined as 50% in assay [1]; 100% in assay [2]; 70% in assay [3]; 100% in assay [4]; 80% with Setaria faberi (SETFA) [5]; 100% in the assay with Solanum nigrum (SOLNI) [6]. The pest or weed control at 1000 g/ha in assay [7] worked out at 60%; in assay [8] it was 100%; in assay [9], 100%; in assay [10] it was 100%; in the assay with Setaria faberi (SETFA) [11] it was 90%; in the assay on Solanum nigrum (SOLNI) [12] it was 100%.
Regarding `COC(=O)c1nc(C2CC2)nc(NC(Cc2ccccc2)C(=O)OC)c1Cl` (stereo not drawn) [Compound 4-283, 5-Chloro-2-cyclopropyl-6-methoxycarbonyl-4-(1-methoxy-carbonyl-2-phenylethylamino)-pyrimidine], the pest or weed control at 1000 g/ha in [1] was found to be 40%; in assay [2], 100%; in assay [3] it was 70%; in assay [4], 100%; in the assay with Setaria faberi (SETFA) [5], 80%; in the assay on Solanum nigrum (SOLNI) [6] it was 100%. Further, the pest or weed control at 1000 g/ha was 20% in assay [7]; 100% in [8]; 60% in [9]; 70% in [10]; 60% with Setaria faberi (SETFA) [11]; 80% in the assay with Solanum nigrum (SOLNI) [12].
For the molecule `COC(=O)c1nc(C2CC2)nc(NCc2c(F)cccc2F)c1Cl` [Compound 4-99, 5-Chloro-2-cyclopropyl-4-(2,6-difluorophenylmeth-ylamino)-6-methoxycarbonyl-pyrimidine], the pest or weed control at 1000 g/ha in assay [1] stood at 30%; in assay [2], 60%; in assay [3] it was 50%; in [4], 60%; in the assay on Setaria faberi (SETFA) [5], 50%; with Solanum nigrum (SOLNI) [6] it was 60%. Moreover, the pest or weed control at 1000 g/ha came to 50% in assay [7]; 100% in assay [8]; 100% in assay [9]; 100% in [10]; 100% in the assay with Setaria faberi (SETFA) [11]; 100% in the assay on Solanum nigrum (SOLNI) [12].
For the molecule `COC(=O)c1nc(C2CC2)nc(NCc2ccc(Cl)cc2F)c1Cl` [Compound 4-101, 5-Chloro-4-(4-chloro-2-fluoro-phenylmethyl-amino)-2-cyclopropyl-6-methoxycarbonyl-pyrimidine], the pest or weed control at 1000 g/ha was 10% in assay [1]; 70% in assay [2]; 30% in assay [3]; 70% in assay [4]; 10% with Setaria faberi (SETFA) [5]; 30% with Solanum nigrum (SOLNI) [6]. Moreover, the pest or weed control at 1000 g/ha in assay [7] worked out at 30%; in assay [8], 100%; in assay [9], 50%; in assay [10], 100%; with Setaria faberi (SETFA) [11], 90%; in the assay on Solanum nigrum (SOLNI) [12], 100%.
`COC(=O)c1nc(C2CC2)nc(NC(C(=O)OC)c2ccccc2)c1Cl` (stereo not drawn) [Compound 4-210, 5-Chloro-2-cyclopropyl-6-methoxycarbonyl-4-(1-methoxy-carbonyl-1-phenyl-methylamino)-pyrimidine]: the pest or weed control at 1000 g/ha in assay [1] was found to be 20%; in assay [2], 100%; in [3], 50%; in [4] it was 100%; with Setaria faberi (SETFA) [5] it was 20%; with Solanum nigrum (SOLNI) [6] it was 90%. Moreover, the pest or weed control at 1000 g/ha in [7] is 60%; in assay [8] it was 50%; in [9] it was 60%; in [10], 40%; in the assay on Setaria faberi (SETFA) [11], 80%; in the assay with Solanum nigrum (SOLNI) [12], 40%.
Take `COC(=O)c1nc(C2CC2)nc(NC2CCCCC2)c1Cl` [Compound 4-35, 5-Chloro-4-cyclohexylamino-2-cyclopropyl-6-methoxycarbonyl-pyrimidine]: the pest or weed control at 1000 g/ha (in assay [1]; in [2]; in [3]; in assay [4]; in the assay with Setaria faberi (SETFA) [5]; in the assay on Solanum nigrum (SOLNI) [6]) was 0% in each case. Further, the pest or weed control at 1000 g/ha was 30% in assay [7]; 30% in assay [8]; 0% in assay [9]; 60% in assay [10]; 20% with Setaria faberi (SETFA) [11]; 40% with Solanum nigrum (SOLNI) [12].
In the case of `COC(=O)c1nc(C2CC2)nc(NC2(/C=C/c3ccccc3Cl)CC2)c1Cl` [Compound 4-24, 5-Chloro-4-{1-[2-(2-chlorophenyl)-ethenyl]-cyclopropylamino}-2-cyclopropyl-6-methoxycarbonyl-pyrimidine], the pest or weed control at 1000 g/ha was found to be 10% in assay [1]; 100% in assay [2]; 0% in [3]; 40% in assay [4]; 0% in the assay with Setaria faberi (SETFA) [5]; 90% with Solanum nigrum (SOLNI) [6]. In addition, the pest or weed control at 1000 g/ha in assay [7] was 10%; in [8], 100%; in assay [9], 30%; in [10], 100%; in the assay with Setaria faberi (SETFA) [11], 60%; in the assay with Solanum nigrum (SOLNI) [12], 80%.
For `COC(=O)c1nc(C2CC2)nc(NCc2cccc(F)c2)c1Cl` [Compound 4-65, 5-Chloro-2-cyclopropyl-4-(3-fluorophenylmethyl-amino)-6-methoxycarbonyl-pyrimidine], the pest or weed control at 1000 g/ha in assay [1] came to 20%; in assay [2], 80%; in assay [3], 60%; in assay [4], 70%; in the assay on Setaria faberi (SETFA) [5], 40%; with Solanum nigrum (SOLNI) [6], 80%. Besides, the pest or weed control at 1000 g/ha in [7] was determined as 20%; in assay [8], 100%; in assay [9], 80%; in assay [10], 100%; with Setaria faberi (SETFA) [11], 100%; in the assay with Solanum nigrum (SOLNI) [12], 100%.
Turning to `COC(=O)c1nc(C2CC2)nc(NCCCc2ccccc2)c1Cl` [Compound 4-249, 5-Chloro-2-cyclopropyl-6-methoxycarbonyl-4-(3-phenylpropyl-amino)pyrimidine], the pest or weed control at 1000 g/ha amounted to 20% in assay [1]; 60% in assay [2]; 50% in [3]; 100% in assay [4]; 50% in the assay with Setaria faberi (SETFA) [5]; 80% in the assay on Solanum nigrum (SOLNI) [6]. Besides, the pest or weed control at 1000 g/ha came to 30% in assay [7]; 100% in [8]; 50% in assay [9]; 90% in assay [10]; 70% in the assay with Setaria faberi (SETFA) [11]; 100% with Solanum nigrum (SOLNI) [12].
